We go through 40 molecules from patent publication US20240360114A1 (SIRONAX LTD., priority 2021, published 2024).

In the first experiment the test system is HT-1080 cells. Briefly: HT-1080 cell viability assay (ferroptosis induced by RSL3, Cell Titer-Glo). In kind it is cell-based. The settings on record: Homo sapiens, HT-1080, 20 h, ferroptosis inducer RSL3, 20 hours, ferroptosis inhibitory activity, Table 2. In short, it runs like this:
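Cells seeded overnight, then co-treated with RSL3 and compound (3-fold, 10-point dilution, top 1.1 μM) for 20 hours. Viability by CellTiter-Glo luminescence, normalized to untreated controls; EC50 from sigmoidal non-linear regression.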
For `CN(C)C(=O)C1CCC(Nc2ccc(C3CCC(C)(C)CC3)cc2)CC1` (stereo not shown) [Compound 89, 4-((4-(4,4-dimethylcyclohexyl)phenyl)amino)-N,N-dimethylcyclohexane-1-carboxamide], the EC50 fell in the range of 0.1 to 100 nM.

In turn, `CC(C)C1CCN(c2cnc(NC3CCC(N)CC3)nc2)CC1` (stereo not shown) [Compound 400, N1-(5-(4-isopropylpiperidin-1-yl)pyrimidin-2-yl)cyclohexane-1,4-diamine] gave an EC50 of 1000 to 10000 nM.

As to `CC(C)C1CCN(c2ncc(NC3CC4(CC(NCC(F)(F)F)C4)C3)cn2)CC1` (stereo not shown) [Compound 414, N2-(2-(4-isopropylpiperidin-1-yl)pyrimidin-5-yl)-N6-(2,2,2-trifluoroethyl)spiro[3.3]heptane-2,6-diamine], the EC50 is 0.1 to 100 nM.

The molecule `CC(C)(C)c1ccc(NC2CCC(N)CC2)cc1F` (stereo not shown) [Compound 242A, N1-(4-(tert-butyl)-3-fluorophenyl)cyclohexane-1,4-diamine 2,2,2-trifluoroacetate] gave an EC50 of 0.1 to 100 nM.

`CN1CCC(NC(=O)C2CCC(Nc3ccc(C4CCC(C)(C)CC4)cc3)CC2)CC1` (stereo not shown) [Compound 77, 4-((4-(4,4-dimethylcyclohexyl)phenyl)amino)-N-(1-methylpiperidin-4-yl)cyclohexane-1-carbox amide] returned an EC50 of 0.1 to 100 nM.

On to `NC1CC2(C1)CC(Nc1ccc(C3CCN(CC(F)(F)F)CC3)cc1)C2` (stereo not shown) [Compound 560, N2-(4-(1-(2,2,2-trifluoroethyl)piperidin-4-yl)phenyl)spiro[3.3]heptane-2,6-diamine], for which the EC50 lay in the range of 0.1 to 100 nM.

Regarding `CC1CC(C)CN(c2ncc(NC3CC4(CC(NC(=O)C(N)=O)C4)C3)cn2)C1` (stereo not shown) [Compound 425, N1-(6-((2-(3,5-dimethylpiperidin-1-yl)pyrimidin-5-yl)amino)spiro[3.3]heptan-2-yl)oxalamide], the EC50 lay in the range of 0.1 to 100 nM.

`CC1(C)CCN(CCNc2ccc(C(C)(C)C)cc2)CC1` [Compound 246, 4-(tert-butyl)-N-(2-(4,4-dimethylpiperidin-1-yl)ethyl)aniline] displayed an EC50 of 100 to 1000 nM.

`CC(C)C1CCN(c2ncc(NC3CC4(CC(NCCF)C4)C3)cn2)CC1` (stereo not shown) [Compound 412, N2-(2-fluoroethyl)-N6-(2-(4-isopropylpiperidin-1-yl)pyrimidin-5-yl)spiro[3.3]heptane-2,6-diamine]: the EC50 fell in the range of 0.1 to 100 nM.

Turning to `CC(C)(C)c1ccccc1NC1CCC(N)CC1` (stereo not shown) [Compound 126, N1-(2-(tert-butyl)phenyl)cyclohexane-1,4-diamine], the EC50 lay within 1000 to 10000 nM.

In turn, `CCCCCN(CC)c1ccc(NC[C@H]2CC[C@H](N)CC2)cc1` [Compound 386, N1-(((1r,4r)-4-aminocyclohexyl)methyl)-N4-ethyl-N4-pentylbenzene-1,4-diamine] yielded an EC50 of 0.1 to 100 nM.

`Cc1nc(N2CC(C)OC(C)C2)ccc1NC1C2CC3CC1CC(N)(C3)C2` (stereo not shown) [Compound 474A, N^4-(6-(2.6-dimethylmorpholino)-2-methylpyridin-3-yl)adamantane-1,4-diamine]: the EC50 was 0.1 to 100 nM.

With `NC1CCC(Nc2cnc(N3CC4(CCC4)C3)nc2)CC1` (stereo not shown) [Compound 47, N1-(2-(2-azaspiro[3.3]heptan-2-yl)pyrimidin-5-yl)cyclohexane-1,4-diamine], the EC50 fell in the range of 100 to 1000 nM.

Take `CCCc1ccc(NC[C@H]2CC[C@H](N)CC2)cc1` [Compound 315, N-(((1r,4r)-4-aminocyclohexyl)methyl)-4-propylaniline]: the EC50 is 0.1 to 100 nM.

Turning to `CC(Nc1ccc(C(C)(C)C)cc1)[C@H]1CC[C@H](N)CC1` (stereo partly drawn) [Compound 350, N—((S)-1-((1r,4S)-4-aminocyclohexyl)ethyl)-4-(tert-butyl)aniline], the EC50 fell in the range of 0.1 to 100 nM.

Turning to `CC1(C)CCC(c2ccc(NC3CC(O)C3)cc2)CC1` (single isomer, unassigned) [Compound 228A, 3-((4-(4,4-dimethylcyclohexyl)phenyl)amino)cyclobutan-1-ol], the EC50 lay within 0.1 to 100 nM.

`CC(C)(C)c1ccc(NC2CCC(CNC(=N)N)CC2)cc1` (stereo not shown) [Compound 344, 1-((4-((4-(tert-butyl)phenyl)amino)cyclohexyl)methyl)guanidine] returned an EC50 of 0.1 to 100 nM.

`CC1CCN(c2ncc(NC3CCC(N)CC3)cn2)CC1` (stereo not shown) [Compound 44, N1-(2-(4-methylpiperidin-1-yl)pyrimidin-5-yl)cyclohexane-1,4-diamine] registered an EC50 of 0.1 to 100 nM.

As to `NC1CCC(Nc2ccc(C3CCC(F)(F)CC3)cc2)CC1` (stereo not shown) [Compound 251A, N1-(4-(4.4-difluorocyclohexyl)phenyl)cyclohexane-1,4-diamine], the EC50 was in the range of 0.1 to 100 nM.

Molecule `CC1(C)CCCc2cc(NC3CCC(N)CC3)ccc21` (stereo not shown) [Compound 337A, 1-N-(5,5-dimethyl-5,6,7,8-tetrahydronaphthalen-2-yl)cyclohexane-1,4-diamine] registered an EC50 of 0.1 to 100 nM.

The molecule `CC(C)(C)c1ccc(NC2CCC(NCCCCO)CC2)cc1` (stereo not shown) [Compound 321, 4-((4-((4-(tert-butyl)phenyl)amino)cyclohexyl)amino) butan-1-ol] came in with an EC50 of 100 to 1000 nM.

The molecule `Cc1c(N2CC(C)OC(C)C2)ccc(NC[C@H]2CC[C@H](N)CC2)c1F` (stereo partly shown) [Compound 469, N-(((1r,4r)-4-aminocyclohexyl)methyl)-4-(2,6-dimethylmorpholino)-2-fluoro-3-methylaniline] yielded an EC50 of 100 to 1000 nM.

Take `CC1(C)CC(C)(C)c2cc(NC3CCC(N)CC3)ccc21` (stereo not shown) [Compound 325A, N1-(1,1,3,3-tetramethyl-2,3-dihydro-1H-inden-5-yl)cyclohexane-1,4-diamine]: the 50% effective concentration (EC50) was 0.1 to 100 nM.

`CC1(C)CCC(C)(C)c2cc(NC[C@H]3CC[C@H](N)CC3)ccc21` [Compound 338, N-(((1r,4r)-4-aminocyclohexyl)methyl)-5,5,8,8-tetramethyl-5,6,7,8-tetrahydronaphthalen-2-amine]: the EC50 was in the range of 0.1 to 100 nM.

Molecule `N[C@H]1CC[C@@H](Nc2ccc(N3CCC(C(F)(F)F)CC3)cc2)CC1` [Compound 355, (1s,4s)-N1-(4-(4-(trifluoromethyl)piperidin-1-yl)phenyl)cyclohexane-1,4-diamine] showed an EC50 of 0.1 to 100 nM.

Regarding `N[C@@H]1CCC[C@H]1Nc1ccc(N2CCC(C(F)(F)F)CC2)cc1` [Compound 444, (1R,2R)-N1-(4-(4-(trifluoromethyl)piperidin-1-yl)phenyl)cyclopentane-1,2-diamine], the EC50 was 0.1 to 100 nM.

As to `CCN1CC(C(=O)NCC2CCC(Nc3ccc(N4CCC(C(F)(F)F)CC4)cc3)CC2)CC1=O` (stereo not shown) [Compound 1, 1-ethyl-5-oxo-N-((4-((4-(4-(trifluoromethyl)piperidin-1-yl)phenyl)amino)cyclohexyl)methyl) pyr rolidine-3-carboxamide], the EC50 was in the range of 0.1 to 100 nM.

The molecule `CC1CCN(c2ccc(NC3CCC(N)CC3)cc2C(F)(F)F)CC1` (stereo not shown) [Compound 53A, N1-(4-(4-methylpiperidin-1-yl)-3-(trifluoromethyl)phenyl)cyclohexane-1,4-diamine] gave an EC50 of 0.1 to 100 nM.

For `Cc1cc(NC[C@H]2CC[C@H](N)CC2)cc(F)c1N1CC(C)OC(C)C1` (stereo partly shown) [Compound 464, N-(((1r,4r)-4-aminocyclohexyl)methyl)-4-(2,6-dimethylmorpholino)-3-fluoro-5-methylaniline], the EC50 was 0.1 to 100 nM.

`Cc1cc(NC2CCC(C)(N)CC2)cc(C)c1C` (single isomer, unassigned) [Compound 313A, 1-methyl-N4-(3,4,5-trimethylphenyl)cyclohexane-1,4-diamine]: the EC50 was in the range of 0.1 to 100 nM.

As to `CN1CCC(Nc2ccc(N3CCC(C(F)(F)F)CC3)cc2)CC1=O` (stereo not shown) [Compound 27, 1-methyl-4-((4-(4-(trifluoromethyl)piperidin-1-yl)phenyl)amino)piperidin-2-one], the EC50 lay in the range of 100 to 1000 nM.

On to `Cc1nc(N2CC[Si](C)(C)CC2)ccc1NC1CC2(CC(N)C2)C1` (stereo not shown) [Compound 556, N2-(6-(4,4-dimethyl-1,4-azasilinan-1-yl)-2-methylpyridin-3-yl)spiro[3.3]heptane-2,6-diamine], for which the EC50 was in the range of 0.1 to 100 nM.

In turn, `NNC(=O)C1CC2(CC(Nc3cnc(N4CCC(C(F)(F)F)CC4)nc3)C2)C1` (stereo not shown) [Compound 427, 6-((2-(4-(trifluoromethyl)piperidin-1-yl)pyrimidin-5-yl)amino)spiro[3.3]heptane-2-carbohydrazide] gave an EC50 of 0.1 to 100 nM.

Molecule `CN(C)CCNC1CCC(Nc2ccc(C(C)(C)C)cc2)CC1` (stereo not shown) [Compound 257] showed an EC50 of 0.1 to 100 nM.

Staying with this experiment, now noted: Homo sapiens, HT-1080, 20 h, ferroptosis inducer RSL3, 20 hours, ferroptosis inhibitory activity, Table 3.
`Cc1nc(N2CCC(C3CC(C)OC(C)C3)CC2)ccc1NC1CC2(CC(N)C2)C1` (stereo not shown) [Compound 594, N^2-(6-(4-(2,6-dimethyltetrahydro-2H-pyran-4-yl)piperidin-1-yl)-2-methylpyridin-3-yl)spiro[3.3]heptane-2,6-diamine] gave an EC50 of 0.1 to 100 nM.

In the case of `Cc1cc(NC2CC3(CC(N)C3)C2)ccc1N1CC(C)N(C(=O)C(F)(F)F)C(C)C1` (stereo not shown) [Compound 647, 1-(4-(4-((6-aminospiro[3.3]heptan-2-yl)amino)-2-methylphenyl)-2,6-dimethylpiperazin-1-yl)-2,2,2-trifluoroethan-1-one], the EC50 lay within 0.1 to 100 nM.

Turning to `Cc1nc(N2CC(C)N(CC(F)(F)F)C(C)C2)ccc1NC1CC(N)C1` (stereo not shown) [Compound 619], the EC50 was 0.1 to 100 nM.

The experiment is the same for the next values; noted with them: ferroptosis inducer RSL3, 20 hours, ferroptosis inhibitory activity, Table 2.
Molecule `CCC(C)(C)c1ccc(NC2CCC(NCCO)CC2)cc1` (single isomer, unassigned) [Compound 295B, 2-((4-((4-(tert-pentyl)phenyl)amino)cyclohexyl)amino)ethan-1-ol] returned an EC50 of 0.1 to 100 nM.

Consider `CC1(C)CCC(c2ccc(NC3CCC(C(N)=O)CC3)cc2)CC1` (single isomer, unassigned) [Compound 159A, 4-((4-(4,4-dimethylcyclohexyl)phenyl)amino)cyclohexane-1-carboxamide], for which the EC50 lay in the range of 0.1 to 100 nM.

Molecule `Cc1nc(N2CC(C)OC(C)C2)c(F)cc1NC1C2CC3CC1CC(CN)(C3)C2` (single isomer, unassigned) [Compound 539B, N-((2r,5s)-5-(aminomethyl)adamantan-2-yl)-6-(2,6-dimethylmorpholino)-5-fluoro-2-methylpyridin-3-amine] came in with an EC50 of 100 to 1000 nM.
